# Experimental data from patent US9867833B2, “Serine/threonine kinase inhibitors” (GENENTECH, INC., priority 2013, dated 2018).
# pIC50: −log10 of the molar value.
# Target: human ERK-2 (Mitogen Activated Kinase 1) (Homo sapiens (Human), UniProt P28482)
# Assay: ERK-2 Enzymatic Assay
# Assay type: biochemical
# Conditions: human ERK-2 enzyme 5 nM, 25 μM ATP, S/T17 peptide substrate; isomer = configuration of CR2R3
# Procedure, shortened: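 Recombinant human ERK-2 (aa 8-360, N-terminal 6-His, E. coli) with 3-fold serially diluted compound. Per-well rates from linear fits converted to percent of control; IC50 by four-parameter fit.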
# Chain of human ERK-2 (Mitogen Activated Kinase 1) (P28482 8-360): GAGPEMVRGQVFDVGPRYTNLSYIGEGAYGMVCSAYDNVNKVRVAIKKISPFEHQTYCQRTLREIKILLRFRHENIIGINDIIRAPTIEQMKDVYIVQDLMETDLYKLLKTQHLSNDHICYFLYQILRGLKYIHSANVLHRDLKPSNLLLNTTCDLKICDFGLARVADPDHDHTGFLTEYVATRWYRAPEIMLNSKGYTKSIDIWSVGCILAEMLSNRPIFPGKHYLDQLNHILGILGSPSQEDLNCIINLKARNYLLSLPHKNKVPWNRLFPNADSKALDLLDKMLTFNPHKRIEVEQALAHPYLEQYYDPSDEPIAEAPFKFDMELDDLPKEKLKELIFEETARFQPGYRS
row,SMILES,pIC50
1,"Cn1nccc1Nc1nccc(-c2cc3n4c(nnc4c2)[C@H](Cc2ccc(F)c(Cl)c2)CO3)n1 [(S) I-82, 4-(3-(3-chloro-4-fluorobenzyl)-3,4-dihydro-5-oxa-1,2,2a^1-triazaacenaphthylen-7-yl)-N-(1-methyl-1H-pyrazol-5-yl)pyrimidin-2-amine]",7.91
2,"CN1C(=O)C[C@H](Cc2ccc(Cl)cn2)c2nnc3cc(-c4ccnc(Nc5ccnn5C)n4)cc1n23 [(S) I-84, 9-((5-chloropyridin-2-yl)methyl)-6-methyl-4-(2-((1-methyl-1H-pyrazol-5-yl)amino)pyrimidin-4-yl)-8,9-dihydro-1,2,2a^1,6-tetraazabenzo[cd]azulen-7(6H)-one]",7.49
3,"COc1ccc(C[C@H]2CC(=O)N(C)c3cc(-c4ccnc(Nc5ccnn5C)n4)cc4nnc2n34)c(F)c1 [(S) I-85, 9-(2-fluoro-4-methoxybenzyl)-6-methyl-4-(2-((1-methyl-1H-pyrazol-5-yl)amino)pyrimidin-4-yl)-8,9-dihydro-1,2,2a^1,6-tetraazabenzo[cd]azulen-7(6H)-one]",7.59
4,"CC(C)[C@@H]1CC(=O)N(C)c2cc(-c3ccnc(Nc4ccnn4C)c3)cc3nnc1n23 [(S) I-87, 9-isopropyl-6-methyl-4-(2-((1-methyl-1H-pyrazol-5-yl)amino)pyridin-4-yl)-8,9-dihydro-1,2,2a^1,6-tetraazabenzo[cd]azulen-7(6H)-one]",6.00
5,"Cn1nccc1Nc1nccc(-c2cc3n4c(nnc4c2)[C@H](Cc2cccc(Cl)c2)CO3)n1 [(S) I-88, 4-(3-(3-chlorobenzyl)-3,4-dihydro-5-oxa-1,2,2a^1-triazaacenaphthylen-7-yl)-N-(1-methyl-1H-pyrazol-5-yl)pyrimidin-2-amine]",8.20
6,"Cn1nccc1Nc1cc(-c2cc3n4c(nnc4c2)[C@H](Cn2cc(C(F)(F)F)cn2)CCO3)ccn1 [(S) I-89, N-(1-methyl-1H-pyrazol-5-yl)-4-(9-((4-(trifluoromethyl)-1H-pyrazol-1-yl)methyl)-8,9-dihydro-7H-6-oxa-1,2,2a^1-triazabenzo[cd]azulen-4-yl)pyridin-2-amine]",8.64
7,"Cn1nccc1Nc1nccc(-c2cc3n4c(nnc4c2)[C@@H](Oc2ccccc2)CCO3)n1 [(S) I-90, N-(1-methyl-1H-pyrazol-5-yl)-4-(9-phenoxy-8,9-dihydro-7H-6-oxa-1,2,2a^1-triazabenzo[cd]azulen-4-yl)pyrimidin-2-amine]",> 10.70
8,"Cn1nccc1Nc1nccc(-c2cc3n4c(nnc4c2)[C@@H](Oc2cncc(F)c2)CCO3)n1 [(S) I-91, 4-(9-((5-fluoropyridin-3-yl)oxy)-8,9-dihydro-7H-6-oxa-1,2,2a^1-triazabenzo[cd]azulen-4-yl)-N-(1-methyl-1H-pyrazol-5-yl)pyrimidin-2-amine]",10.46
9,"Cc1cc(C[C@@H]2CCOc3cc(-c4ccnc(Nc5ccnn5C)n4)cc4nnc2n34)on1 [(S) I-93, N-(1-methyl-1H-pyrazol-5-yl)-4-(9-((3-methylisoxazol-5-yl)methyl)-8,9-dihydro-7H-6-oxa-1,2,2a^1-triazabenzo[cd]azulen-4-yl)pyrimidin-2-amine]",7.74
10,"COc1cccc(C[C@@H]2COc3cc(-c4ccnc(Nc5ccnn5C)c4)cc4nnc2n34)c1 [(S) I-97, 4-(3-(3-methoxybenzyl)-3,4-dihydro-5-oxa-1,2,2a^1-triazaacenaphthylen-7-yl)-N-(1-methyl-1H-pyrazol-5-yl)pyridin-2-amine]",9.10
11,"Cn1nccc1Nc1nccc(-c2cc3n4c(nnc4c2)[C@@H](CCC(F)(F)F)CCO3)n1 [(S) I-102, N-(1-methyl-1H-pyrazol-5-yl)-4-(9-(3,3,3-trifluoropropyl)-8,9-dihydro-7H-6-oxa-1,2,2a^1-triazabenzo[cd]azulen-4-yl)pyrimidin-2-amine]",10.60
12,"CCC[C@H]1CCOc2cc(-c3ccnc(Nc4ccnn4C)c3)cc3nnc1n23 [(S) I-103, N-(1-methyl-1H-pyrazol-5-yl)-4-(9-propyl-8,9-dihydro-7H-6-oxa-1,2,2a^1-triazabenzo[cd]azulen-4-yl)pyridin-2-amine]",10.59
13,"CCC[C@H]1CCOc2cc(-c3ccnc(Nc4ccnn4C)n3)cc3nnc1n23 [(S) I-104, N-(1-methyl-1H-pyrazol-5-yl)-4-(9-propyl-8,9-dihydro-7H-6-oxa-1,2,2a^1-triazabenzo[cd]azulen-4-yl)pyrimidin-2-amine]",> 10.70
14,"CC(C)C[C@H]1CCOc2cc(-c3ccnc(Nc4ccnn4C)n3)cc3nnc1n23 [(S) I-107, 4-(9-isobutyl-8,9-dihydro-7H-6-oxa-1,2,2a^1-triazabenzo[cd]azulen-4-yl)-N-(1-methyl-1H-pyrazol-5-yl)pyrimidin-2-amine]",10.64
15,"Cn1nccc1Nc1nccc(-c2cc3n4c(nnc4c2)[C@@H](Oc2ccc(F)cc2)CCO3)n1 [(S) I-108, 4-(9-(4-fluorophenoxy)-8,9-dihydro-7H-6-oxa-1,2,2a^1-triazabenzo[cd]azulen-4-yl)-N-(1-methyl-1H-pyrazol-5-yl)pyrimidin-2-amine]",> 10.70
16,"Clc1cnn(C[C@@H]2CCOc3cc(-c4ccnc(NC5CCOCC5)n4)cc4nnc2n34)c1 [(S) I-110, 4-(9-((4-chloro-1H-pyrazol-1-yl)methyl)-8,9-dihydro-7H-6-oxa-1,2,2a^1-triazabenzo[cd]azulen-4-yl)-N-(tetrahydro-2H-pyran-4-yl)pyrimidin-2-amine]",9.85
17,"Cn1nccc1Nc1nccc(-c2cc3n4c(nnc4c2)[C@@H](Oc2ccc(F)c(F)c2)CCO3)n1 [(S) I-111, 4-(9-(3,4-difluorophenoxy)-8,9-dihydro-7H-6-oxa-1,2,2a^1-triazabenzo[cd]azulen-4-yl)-N-(1-methyl-1H-pyrazol-5-yl)pyrimidin-2-amine]",> 10.70
18,"CC(C)[C@H]1CNc2cc(-c3ccnc(Nc4ccnn4C)n3)cc3nnc1n23 [Compound I-3, S-4-(3-isopropyl-4,5-dihydro-3H-1,2,2a^1,5-tetraazaacenaphthylen-7-yl)-N-(1-methyl-1H-pyrazol-5-yl)pyrimidin-2-amine]",10.41
19,"CN1C(=O)N[C@H](Cc2ccc(Cl)cc2)c2nnc3cc(-c4ccnc(Nc5ccnn5C)n4)cc1n23 [Compound I-6, (R)-9-(4-chlorobenzyl)-6-methyl-4-(2-((1-methyl-1H-pyrazol-5-yl)amino)pyrimidin-4-yl)-8,9-dihydro-1,2,2a^1,6,8-pentaazabenzo[cd]azulen-7(6H)-one]",10.64
20,"CC(C)C[C@@H]1c2nnc3cc(-c4ccnc(Nc5ccnn5C)n4)cc(n23)N(C)C(=O)N1C [Compound I-19, (R)-9-isobutyl-6,8-dimethyl-4-(2-((1-methyl-1H-pyrazol-5-yl)amino)pyrimidin-4-yl)-8,9-dihydro-1,2,2a^1,6,8-pentaazabenzo[cd]azulen-7(6H)-one]",8.94
21,"CC(C)C[C@@H]1c2nnc3cc(-c4ccnc(Nc5ccnn5C)n4)cc(n23)NC(=O)N1C [Compound I-23, (R)-9-isobutyl-8-methyl-4-(2-((1-methyl-1H-pyrazol-5-yl)amino)pyrimidin-4-yl)-8,9-dihydro-1,2,2a^1,6,8-pentaazabenzo[cd]azulen-7(6H)-one]",8.95
22,"CC(C)C[C@H]1NC(=O)N(C)c2cc(-c3ccnc(Nc4ccnn4C)c3)cc3nnc1n23 [Compound I-25, (R)-9-isobutyl-6-methyl-4-(2-((1-methyl-1H-pyrazol-5-yl)amino)pyridin-4-yl)-8,9-dihydro-1,2,2a^1,6,8-pentaazabenzo[cd]azulen-7(6H)-one]",8.37
23,"COc1ccc(C[C@H]2NC(=O)N(C)c3cc(-c4ccnc(Nc5ccnn5C)c4)cc4nnc2n34)cc1 [Compound I-26, (R)-9-(4-methoxybenzyl)-6-methyl-4-(2-((1-methyl-1H-pyrazol-5-yl)amino)pyridin-4-yl)-8,9-dihydro-1,2,2a^1,6,8-pentaazabenzo[cd]azulen-7(6H)-one]",9.41
24,"CN1C(=O)N(Cc2ccccc2)c2nnc3cc(-c4ccnc(Nc5ccnn5C)n4)cc1n23 [Compound I-28, 3-benzyl-5-methyl-7-(2-((1-methyl-1H-pyrazol-5-yl)amino)pyrimidin-4-yl)-3H-1,2,2a^1,3,5-pentaazaacenaphthylen-4(5H)-one]",10.70
25,"CN1C(=O)N[C@H](Cc2cccc(F)c2)c2nnc3cc(-c4ccnc(Nc5ccnn5C)n4)cc1n23 [Compound I-39, (R)-9-(3-fluorobenzyl)-6-methyl-4-(2-((1-methyl-1H-pyrazol-5-yl)amino)pyrimidin-4-yl)-8,9-dihydro-1,2,2a^1,6,8-pentaazabenzo[cd]azulen-7(6H)-one]",9.67
26,"CN1C(=O)N[C@H](CC2CC2)c2nnc3cc(-c4ccnc(Nc5ccnn5C)n4)cc1n23 [Compound I-51, (R)-9-(cyclopropylmethyl)-6-methyl-4-(2-((1-methyl-1H-pyrazol-5-yl)amino)pyrimidin-4-yl)-8,9-dihydro-1,2,2a^1,6,8-pentaazabenzo[cd]azulen-7(6H)-one]",8.63
27,"Cn1nccc1Nc1nccc(-c2cc3n4c(nnc4c2)C(Cn2cc(C(F)(F)F)cn2)CCO3)n1 (centres unmarked) [Compound I-73, N-(1-methyl-1H-pyrazol-5-yl)-4-(9-((4-(trifluoromethyl)-1H-pyrazol-1-yl)methyl)-8,9-dihydro-7H-6-oxa-1,2,2a^1-triazabenzo[cd]azulen-4-yl)pyrimidin-2-amine]",> 10.70
28,"CN1C(=O)CC(Cc2ccc(F)cc2)c2nnc3cc(-c4ccnc(Nc5ccnn5C)n4)cc1n23 (centres unmarked) [Compound I-79, 9-(4-fluorobenzyl)-6-methyl-4-(2-((1-methyl-1H-pyrazol-5-yl)amino)pyrimidin-4-yl)-8,9-dihydro-1,2,2a^1,6-tetraazabenzo[cd]azulen-7(6H)-one]",7.77
29,"CN1C(=O)C[C@H](Cc2cccc(Cl)c2)c2nnc3cc(-c4ccnc(Nc5ccnn5C)n4)cc1n23 [Compound I-80, (S)-9-(3-chlorobenzyl)-6-methyl-4-(2-((1-methyl-1H-pyrazol-5-yl)amino)pyrimidin-4-yl)-8,9-dihydro-1,2,2a^1,6-tetraazabenzo[cd]azulen-7(6H)-one]",> 10.70
